Measurements as given in paper PMC10946806, “Development of Bifunctional, Raman Active Diyne‐Girder Stapled α‐Helical Peptides” (Chemistry (Weinheim an Der Bergstrasse, Germany), 2023).

Assay: on-resin Glaser oxidative coupling of two terminal alkynes (i,i+7 side chains) to 1,3-diyne; CuCl 5 eq, 4,4'-bis(hydroxymethyl)-2,2'-bipyridine 7.5 eq, DIPEA 20 eq, microwave
Details: the molecule shown is the open-chain precursor, DMF, 10.0 mM, 60.0 °C, 3.0 h

Row | Structure (SMILES) | ring closure, conversion by HPLC (38-membered ring) [%] | ring closure, conversion by HPLC (36-membered ring) [%]
1 | C#CCCCCCC[C@](C)(NC(=O)[C@H](CCCCNC(=O)OC(C)(C)C)NC(=O)[C@H](C)NC(=O)CCCCCNC(=O)OCC1c2ccccc2-c2ccccc21)C(=O)N[C@@H](Cc1ccc(OC(C)(C)C)cc1)C(=O)N[C@@H](C)C(=O)N[C@@H](CCCNC(=N)NS(=O)(=O)c1c(C)c(C)c2c(c1C)CC(C)(C)O2)C(=O)N[C@@H](CCCC)C(=O)NCC(=O)N[C@@H](CCCNC(=N)NS(=O)(=O)c1c(C)c(C)c2c(c1C)CC(C)(C)O2)C(=O)N[C@@](C)(CCCCCCC#C)C(=O)N[C@@H](CC(C)C)C(=O)N[C@@H](CCCCNC(=O)OC(C)(C)C)C(=O)N[C@@H](CCC(=O)OC(C)(C)C)C(=O)N[C@H](C(=O)N[C@@H](C)C(=O)N[C@@H](CCCCNC(=O)OC(C)(C)C)C(N)=O)[C@@H](C)CC | 100 | –
2 | C#CCCCCCC[C@@](C)(NC(=O)[C@H](CCCNC(=N)NS(=O)(=O)c1c(C)c(C)c2c(c1C)CC(C)(C)O2)NC(=O)CNC(=O)[C@H](CCCC)NC(=O)[C@H](CCCNC(=N)NS(=O)(=O)c1c(C)c(C)c2c(c1C)CC(C)(C)O2)NC(=O)[C@H](C)NC(=O)[C@H](Cc1ccc(OC(C)(C)C)cc1)NC(=O)[C@](C)(CCCCCCC#C)NC(=O)[C@H](CCCCNC(=O)OC(C)(C)C)NC(=O)[C@H](C)NC(=O)CCCCCNC(=O)OCC1c2ccccc2-c2ccccc21)C(=O)N[C@@H](CC(C)C)C(=O)N[C@@H](CCCCNC(=O)OC(C)(C)C)C(=O)N[C@@H](CCC(=O)OC(C)(C)C)C(=O)N[C@H](C(=O)N[C@@H](C)C(=O)N[C@@H](CCCCNC(=O)OC(C)(C)C)C(N)=O)[C@@H](C)CC | 68 | –
3 | C#CCCCCC[C@H](NC(=O)[C@H](CCCNC(=N)NS(=O)(=O)c1c(C)c(C)c2c(c1C)CC(C)(C)O2)NC(=O)CNC(=O)[C@H](CCCC)NC(=O)[C@H](CCCNC(=N)NS(=O)(=O)c1c(C)c(C)c2c(c1C)CC(C)(C)O2)NC(=O)[C@H](C)NC(=O)[C@H](Cc1ccc(OC(C)(C)C)cc1)NC(=O)[C@H](CCCCCC#C)NC(=O)[C@H](CCCCNC(=O)OC(C)(C)C)NC(=O)[C@H](C)NC(=O)CCCCCNC(=O)OCC1c2ccccc2-c2ccccc21)C(=O)N[C@@H](CC(C)C)C(=O)N[C@@H](CCCCNC(=O)OC(C)(C)C)C(=O)N[C@@H](CCC(=O)OC(C)(C)C)C(=O)N[C@H](C(=O)N[C@@H](C)C(=O)N[C@@H](CCCCNC(=O)OC(C)(C)C)C(N)=O)[C@@H](C)CC | – | 38
4 | C#CCCCCC[C@@](C)(NC(=O)[C@H](CCCCNC(=O)OC(C)(C)C)NC(=O)[C@H](C)NC(=O)CCCCCNC(=O)OCC1c2ccccc2-c2ccccc21)C(=O)N[C@@H](Cc1ccc(OC(C)(C)C)cc1)C(=O)N[C@@H](C)C(=O)N[C@@H](CCCNC(=N)NS(=O)(=O)c1c(C)c(C)c2c(c1C)CC(C)(C)O2)C(=O)N[C@@H](CCCC)C(=O)NCC(=O)N[C@@H](CCCNC(=N)NS(=O)(=O)c1c(C)c(C)c2c(c1C)CC(C)(C)O2)C(=O)N[C@](C)(CCCCCC#C)C(=O)N[C@@H](CC(C)C)C(=O)N[C@@H](CCCCNC(=O)OC(C)(C)C)C(=O)N[C@@H](CCC(=O)OC(C)(C)C)C(=O)N[C@H](C(=O)N[C@@H](C)C(=O)N[C@@H](CCCCNC(=O)OC(C)(C)C)C(N)=O)[C@@H](C)CC | – | 68
5 | C#CCCCCC[C@](C)(NC(=O)[C@H](CCCCNC(=O)OC(C)(C)C)NC(=O)[C@H](C)NC(=O)CCCCCNC(=O)OCC1c2ccccc2-c2ccccc21)C(=O)N[C@@H](Cc1ccc(OC(C)(C)C)cc1)C(=O)N[C@@H](C)C(=O)N[C@@H](CCCNC(=N)NS(=O)(=O)c1c(C)c(C)c2c(c1C)CC(C)(C)O2)C(=O)N[C@@H](CCCC)C(=O)NCC(=O)N[C@@H](CCCNC(=N)NS(=O)(=O)c1c(C)c(C)c2c(c1C)CC(C)(C)O2)C(=O)N[C@@](C)(CCCCCC#C)C(=O)N[C@@H](CC(C)C)C(=O)N[C@@H](CCCCNC(=O)OC(C)(C)C)C(=O)N[C@@H](CCC(=O)OC(C)(C)C)C(=O)N[C@H](C(=O)N[C@@H](C)C(=O)N[C@@H](CCCCNC(=O)OC(C)(C)C)C(N)=O)[C@@H](C)CC | – | 100
